Test results taken from patent publication US4888287A, “Rapid differentiation of fungi from bacteria using polyene antibiotics” (Eastman Kodak Company, priority 1986, dated 1989).

Test: Reduction potential E1/2 of the quinone nucleus of RIND compounds (Table I)
Type: physicochemical
Conditions: quinone nucleus with H in place of the releasing group; aqueous emulsion, DMF, nonionic surfactant, phosphate buffer pH 7; standard calomel electrode
Description: Examples of such nuclei are presented below.
Preferably, the E1/2 is from about +100 mV to about +400 mV as measured in water, or from about -650 to about -300 mV as measured in acetonitrile. […] Further details of measuring the E1/2 are described below prior to Table I. The desired E1/2 is achieved by appropriate electron withdrawing groups on the CAR-nucleus, or by a strained fused ring attached to the nucleus or by a combination of both.
Representative RIND compounds are listed in Table I below in reference to the following structure: [drawing 3] The E1/2 values in Table I were determined for the quinone nucleus of this structure having a hydrogen atom in place of [drawing 4] The E1/2 values (where available) were measured in an aqueous emulsion of the quinone dissolved in N,N-dimethylformamide, a nonionic surfactant (for example, TRITON X-100) and sodium phosphate buffer (pH 7). A standard calomel electrode was used as a standard. Some E1/2 values (denoted by *) were measured in acetonitrile using a saturated calomel electrode as a standard. E1/2 values not available are denoted by "NA".

Row | Structure (SMILES) | E1/2
1 | CC(C1=C(CN(C)C(=O)Oc2ccc(N=Nc3ccc([N+](=O)[O-])cc3S(C)(=O)=O)c3c(NS(=O)(=O)c4cccc(S(N)(=O)=O)c4)cccc23)C(=O)C(C(C)c2ccc([N+](=O)[O-])cc2)=C(CN(C)C(=O)Oc2ccc(N=Nc3ccc([N+](=O)[O-])cc3S(C)(=O)=O)c3c(NS(=O)(=O)c4cccc(S(N)(=O)=O)c4)cccc23)C1=O)c1ccc([N+](=O)[O-])cc1 (stereo not shown) [II] | +236 mV
2 | CN(CC1=C(c2ccc(C#N)cc2)C(=O)C2=C(CCCC2)C1=O)C(=O)Oc1ccc(N=Nc2ccc([N+](=O)[O-])cc2S(C)(=O)=O)c2c(NS(=O)(=O)c3cccc(S(N)(=O)=O)c3)cccc12 [IX] | +220 mV
3 | CN(CC1=C(c2ccc(C(=O)O)cc2)C(=O)C2=C(CCCC2)C1=O)C(=O)Oc1ccc2c3c(cccc13)C(=O)C=C2 [RIND Compound XXXV] | +220 mV
4 | CC(C)NS(=O)(=O)c1ccc(C2=C(CN(C)C(=O)Oc3ccc(N=Nc4ccc([N+](=O)[O-])cc4S(C)(=O)=O)c4c(NS(=O)(=O)c5cccc(S(N)(=O)=O)c5)cccc34)C(=O)C3=C(CCCC3)C2=O)cc1 [VIII] | +212 mV
5 | CN(CC1=C(c2ccc([N+](=O)[O-])cc2)C(=O)C2=C(CCCC2)C1=O)C(=O)Oc1ccc(N=Nc2ccc([N+](=O)[O-])cc2S(C)(=O)=O)c2c(NS(=O)(=O)c3cccc(S(N)(=O)=O)c3)cccc12 [VII] | +236 mV
6 | CN(CC1=C(c2ccccc2)C(=O)C2=C(CCCC2)C1=O)C(=O)Oc1ccc(N=Nc2ccc([N+](=O)[O-])cc2S(C)(=O)=O)c2c(NS(=O)(=O)c3cccc(S(N)(=O)=O)c3)cccc12 [VI] | +180 mV
7 | CN(CC1=C(c2cccc([N+](=O)[O-])c2)C(=O)C2=C(CCCC2)C1=O)C(=O)Oc1ccc(N=Nc2ccc([N+](=O)[O-])cc2S(C)(=O)=O)c2c(NS(=O)(=O)c3cccc(S(N)(=O)=O)c3)cccc12 [V] | +214 mV
8 | CC(=O)c1ccc(C2=C(CN(C)C(=O)Oc3ccc(N=Nc4ccc([N+](=O)[O-])cc4S(C)(=O)=O)c4c(NS(=O)(=O)c5cccc(S(N)(=O)=O)c5)cccc34)C(=O)C3=C(CCCC3)C2=O)cc1 [XIII] | +212 mV
9 | CCCCCCCCCCC(=O)c1ccc(C2=C(CN(C)C(=O)Oc3ccc(N=Nc4ccc([N+](=O)[O-])cc4S(C)(=O)=O)c4c(NS(=O)(=O)c5cccc(S(N)(=O)=O)c5)cccc34)C(=O)C3=C(CCCC3)C2=O)cc1 [XII] | +206 mV
10 | CN(CC1=C(c2ccc(Br)cc2)C(=O)C2=C(CCCC2)C1=O)C(=O)Oc1ccc(N=Nc2ccc([N+](=O)[O-])cc2S(C)(=O)=O)c2c(NS(=O)(=O)c3cccc(S(N)(=O)=O)c3)cccc12 [XIV] | +192 mV
11 | CN(CC1=C(c2ccccc2)C(=O)C2=C(C1=O)C1C=CC2C1)C(=O)Oc1ccc(N=Nc2ccc([N+](=O)[O-])cc2S(C)(=O)=O)c2c(NS(=O)(=O)c3cccc(S(N)(=O)=O)c3)cccc12 (stereo not shown) [XIX] | +242 mV
12 | CN(CC1=C(c2cc([N+](=O)[O-])cc([N+](=O)[O-])c2)C(=O)C2=C(CCCC2)C1=O)C(=O)Oc1ccc(N=Nc2ccc([N+](=O)[O-])cc2S(C)(=O)=O)c2c(NS(=O)(=O)c3cccc(S(N)(=O)=O)c3)cccc12 [XI] | +186 mV
13 | CN(CC1=C(c2ccc(C#N)cc2)C(=O)C2=C(CC=CC2)C1=O)C(=O)Oc1ccc(N=Nc2ccc([N+](=O)[O-])cc2S(C)(=O)=O)c2c(NS(=O)(=O)c3cccc(S(N)(=O)=O)c3)cccc12 [XVII] | +240 mV
14 | CCCCCCCCCCCCN(CC1=C(c2ccc(C#N)cc2)C(=O)C2=C(CCCC2)C1=O)C(=O)Oc1ccc(N=Nc2ccc([N+](=O)[O-])cc2S(C)(=O)=O)c2c(NS(=O)(=O)c3cccc(S(N)(=O)=O)c3)cccc12 [XVI] | +220 mV
15 | CN(CC1=CC(=O)C2=C(CCCC2)C1=O)C(=O)Oc1ccc(N=Nc2ccc([N+](=O)[O-])cc2S(C)(=O)=O)c2c(NS(=O)(=O)c3cccc(S(N)(=O)=O)c3)cccc12 [XV] | +213 mV
16 | Cc1cc(=O)oc2cc(OC(=O)N(C)CC3=C(c4cccc([N+](=O)[O-])c4)C(=O)C4=C(CCCC4)C3=O)ccc12 [XXIII] | +214 mV
17 | CN(CC1=C(c2cc(Cl)ccc2Cl)C(=O)C2=C(CCC2)C1=O)C(=O)Oc1ccc(N=Nc2ccc([N+](=O)[O-])cc2S(C)(=O)=O)c2c(NS(=O)(=O)c3cccc(S(N)(=O)=O)c3)cccc12 [XXIV] | +236 mV
18 | CN(CC1=C(c2ccc(C#N)cc2)C(=O)C2=C(CCCC2)C1=O)C(=O)Oc1ccc2c3c(cccc13)C(=O)C=C2 [XXIX] | +220 mV
19 | CC1CCC(C)C2=C1C(=O)C(CN(C)C(=O)Oc1ccc(N=Nc3ccc([N+](=O)[O-])cc3S(C)(=O)=O)c3c(NS(=O)(=O)c4cccc(S(N)(=O)=O)c4)cccc13)=C(c1ccccc1)C2=O (stereo not shown) [XXVII] | +122 mV
20 | CCCCCCCCCCCCC1CC2=C(C1)C(=O)C(c1ccccc1)=C(CN(C)C(=O)Oc1ccc(N=Nc3ccc([N+](=O)[O-])cc3S(C)(=O)=O)c3c(NS(=O)(=O)c4cccc(S(N)(=O)=O)c4)cccc13)C2=O (stereo not shown) [XXV] | +222 mV
21 | CN(CC1=C(c2ccc([N+](=O)[O-])cc2)C(=O)C2=C(CCCC2)C1=O)C(=O)Oc1ccc2c3c(cccc13)C(=O)C=C2 [XXXIII] | +236 mV
22 | CN(CC1=C(c2cccc([N+](=O)[O-])c2)C(=O)C2=C(CCCC2)C1=O)C(=O)Oc1ccc2c3c(cccc13)C(=O)C=C2 [XXXII] | +214 mV
23 | CN(CC1=C(c2cc(Cl)ccc2Cl)C(=O)C2=C(CCC2)C1=O)C(=O)Oc1ccc2c3c(cccc13)C(=O)C=C2 [XXXI] | +236 mV
24 | CC1=C(C)C(=O)C(c2ccccc2)=C(CN(C)C(=O)Oc2ccc(N=Nc3ccc([N+](=O)[O-])cc3S(C)(=O)=O)c3c(NS(=O)(=O)c4cccc(S(N)(=O)=O)c4)cccc23)C1=O [XXXVI] | +144 mV
25 | CN(CC1=C(c2ccccc2)C(=O)C2=C(CCC2)C1=O)C(=O)Oc1ccc2c3c(cccc13)C(=O)C=C2 [XXX] | +222 mV
26 | CN(CC1=C(c2ccccc2)C(=O)C2=C(CCC2)C1=O)C(=O)Oc1ccc(N=Nc2ccc([N+](=O)[O-])cc2S(C)(=O)=O)c2c(NS(=O)(=O)c3cccc(S(N)(=O)=O)c3)cccc12 [XX] | +222 mV
27 | COc1cccc(C2=C(CN(C)C(=O)Oc3ccc(N=Nc4ccc([N+](=O)[O-])cc4S(C)(=O)=O)c4c(NS(=O)(=O)c5cccc(S(N)(=O)=O)c5)cccc34)C(=O)C3=C(CCCC3)C2=O)c1 [X] | +154 mV

Same assay, conditions: quinone nucleus with H in place of the releasing group; denoted *: measured in acetonitrile, saturated calomel electrode

Row | Structure (SMILES) | E1/2
28 | CN(CC1=C(c2ccccc2)C(=O)C(CN(C)C(=O)Oc2ccc(N=Nc3ccc([N+](=O)[O-])cc3S(C)(=O)=O)c3c(NS(=O)(=O)c4cccc(S(N)(=O)=O)c4)cccc23)=C(c2ccccc2)C1=O)C(=O)Oc1ccc(N=Nc2ccc([N+](=O)[O-])cc2S(C)(=O)=O)c2c(NS(=O)(=O)c3cccc(S(N)(=O)=O)c3)cccc12 [IV] | -460 mV
29 | CCCCCCCCCCNS(=O)(=O)c1ccc(C(C)C2=C(CN(C)C(=O)Oc3ccc(N=Nc4ccc([N+](=O)[O-])cc4S(C)(=O)=O)c4c(NS(=O)(=O)c5cccc(S(N)(=O)=O)c5)cccc34)C(=O)C(C(C)c3ccc(S(=O)(=O)NCCCCCCCCCC)cc3)=C(CN(C)C(=O)Oc3ccc(N=Nc4ccc([N+](=O)[O-])cc4S(C)(=O)=O)c4c(NS(=O)(=O)c5cccc(S(N)(=O)=O)c5)cccc34)C2=O)cc1 (stereo not shown) [I] | -528 mV
30 | CCCCCCCCCCNS(=O)(=O)c1ccc(C(C)C2=C(CN(C)C(=O)Oc3ccc4c(C)cc(=O)oc4c3)C(=O)C(C(C)c3ccc(S(=O)(=O)NCCCCCCCCCC)cc3)=C(CN(C)C(=O)Oc3ccc4c(C)cc(=O)oc4c3)C2=O)cc1 (stereo not shown) [XXII] | -528 mV
31 | CCCCCCCCCCNS(=O)(=O)c1ccc(C(C)C2=C(CN(C)C(=O)Oc3ccc(N=Nc4cccc(S(N)(=O)=O)c4)c4c(NS(C)(=O)=O)cccc34)C(=O)C(C(C)c3ccc(S(=O)(=O)NCCCCCCCCCC)cc3)=C(CN(C)C(=O)Oc3ccc(N=Nc4cccc(S(N)(=O)=O)c4)c4c(NS(C)(=O)=O)cccc34)C2=O)cc1 (stereo not shown) [XXI] | -528 mV
